In patent publication US20030166663A1, “Use” (priority 2001, published 2003):
Several values for one entry are separate records, joined by “and”; a condition that tells them apart may be missing. Equal values may be shown once. Read-outs that look alike come from different tables or passages of the source.

Legend:
ob/ob mice = experiment: Effect of compounds on food intake in ob/ob mice (15 h food consumption, s.c. minipump infusion); format: in vivo, mouse; settings: for Food intake, % of basal level, Mean: 15 h food consumption; for Inhibition (%) Based on basal (food intake): relative to vehicle
Description: Obese (ob/ob) mouse is selected as the primary animal model for screening as this mutant mouse consumes high amounts of food resulting in a high signal to noise ratio. To further substantiate and compare efficacy data, the effect of the compounds on food consumption is also studied in wild type (C57BL/6J) mice. The amount of food consumed during 15 hours of infusion of compounds is recorded.
Male mice (obese C57BL/6JBom-Lep^ob and lean wild-type C57B1/6JBom; Bomholtsgaard, Denmark) 8-9 weeks with an average body weight of 50 g (obese) and 25 g (lean) are used in all the studies. The animals are housed singly in cages at 23±1° C., 40-60 % humidity and have free access to water and standard laboratory chow. The 12/12-h light/dark cycle is set to lights off at 5 p.m. The animals are conditioned for at least one week before start of study.
The test compounds are dissolved in solvents suitable for each specific compound such as cyclodextrin, cyclodextrin/methane sulfonic acid, polyethylene glycol/methane sulfonic acid, or saline. Fresh solutions are made for each study. […] The purity of the test compounds is of analytical grade.
(§1) The animals are weighed at the start of the study and randomized based on body weight. Alzet osmotic minipumps (Model 2001D; infusion rate 8 μl/h) are used and loaded essentially as recommended by the Alzet technical information manual (Alza Scientific Products, 1997; Teeuwes and Yam, 1976). Continuous subcutaneous infusion with 24 hours duration is used. The minipumps are either filled with different concentrations of test compounds dissolved in vehicle or with only vehicle solution and maintained in vehicle pre-warmed to 37° C. (approx. 1 h). The minipumps are implanted subcutaneously in the neck/back region under short acting anesthesia (metofane/enflurane). This surgical procedure lasts approximately 5 min. It takes about 3 h to reach steady state delivery of the compound.
(§2) The weights of the food pellets are measured at 5 p.m. and at […]. for two days before (baseline) and one day after the implantation of the osmotic minipumps. The weighing is performed with a computer assisted Mettler Toledo PR 5002 balance. Occasional spillage is corrected for. At the end of the study the animals are killed by neck dislocation and trunk blood sampled for later analysis of plasma drug concentrations.
Food consumption for 15 hours is measured for the three consecutive days and the percentage of basal level values is derived for each animal from the day before and after treatment. The values are expressed as mean±SD and mean±SEM from eight animals per dose group. Statistical evaluation is performed by Kruskal-Wallis one-way ANOVA using the per cent basal values. If statistical significance is reached at the level of p<0.05, Mann-Whitney U-test for statistical comparison between control and treatment groups is performed.

[1] = Determination of plasma concentration at steady state (Css, tot) in ob/ob mice; format: in vivo, mouse; settings: continuous s.c. infusion, read-out: Css, tot (total plasma exposure at steady state)
Description: as §1, §2
The plasma sample proteins are precipitated with methanol, centrifuged, and the supernatant is transferred to HPLC vials and injected into the liquid chromatography/mass spectrometric system. The mass spectrometer is set for electrospray positive ion mode and Multiple Reaction Monitoring.
A linear regression analysis of the standards forced through the origin is used to calculate the concentrations of the unknown samples.

[2] = nominal 10 mg/kg/day s.c. infusion
[3] = nominal 30 mg/kg/day s.c. infusion
[4] = nominal 100 mg/kg/day s.c. infusion
[5] = mouse, plasma, subcutaneous, nominal 10 mg/kg/day
[6] = mouse, plasma, subcutaneous, nominal 30 mg/kg/day
[7] = mouse, plasma, subcutaneous, nominal 100 mg/kg/day

Row | SMILES | Food intake, % of basal level, Mean (ob/ob mice; [2]) | Food intake, % of basal level, Mean (ob/ob mice; [3]) | Food intake, % of basal level, Mean (ob/ob mice; [4]) | Inhibition (%) Based on basal (food intake) (ob/ob mice; [2]) | Inhibition (%) Based on basal (food intake) (ob/ob mice; [3]) | Inhibition (%) Based on basal (food intake) (ob/ob mice; nominal 30 mg/kg/day s.c. infusion, listed as 5-Chloro-3-methyl-benzo[b]thiophene-2-sulfonic acid (4-[4-methylpiperazin-1-yl]q) | Inhibition (%) Based on basal (food intake) (ob/ob mice; [4]) | Inhibition (%) Based on basal (food intake) (ob/ob mice; nominal 100 mg/kg/day s.c. infusion, listed as 5-Chloro-3-methyl-benzo[b]thiophene-2-sulfonic acid (4-[4-methylpiperazin-1-yl]q) | concentration at 24 h [1, 5] | concentration at 24 h [1, 6] | concentration at 24 h [1, 7] | Inhibition (%) Based on basal (food intake) (ob/ob mice; nominal 30 mg/kg/day s.c. infusion, listed as 4-n-Butyl-N-(4-piperazin-1-yl-quinolin-6-yl)benzenesulfonamide) | Inhibition (%) Based on basal (food intake) (ob/ob mice; nominal 100 mg/kg/day s.c. infusion, listed as 4-n-Butyl-N-(4-piperazin-1-yl-quinolin-6-yl)benzenesulfonamide) | concentration at 24 h ([1]; nominal 10 mg/kg/day)
1 | Cc1c(S(=O)(=O)Nc2ccc3nccc(N4CCN(C)CC4)c3c2)sc2ccc(Cl)cc12 [EXAMPLE 1, 5-chloro-3-methyl-benzo[b]thiophene-2-sulphonic acid (4-[4-methylpiperazin-1-yl]quinolin-6-yl)amide] | 62.5 % of basal level | 49.3 % of basal level | 49.9 % of basal level | 4.9% | 25.0% | 25% | 24.1% | 24% | 1000 nM | 1620 nM | 1810 nM | – | – | –
2 | CCCCc1ccc(S(=O)(=O)Nc2ccc3nccc(N4CCNCC4)c3c2)cc1 [EXAMPLE 2, 4-n-butyl-N-(4-piperazin-1-yl-quinolin-6-yl)benzenesulphonamide] | 61.0 % of basal level | 45.5 % of basal level | 43.6 % of basal level | 6.5% | 30.2% | – | 33.2% | – | 370 nM | 940 nM | 1290 nM | 30% | 33% | –
3 | Clc1cccc(N2CCNCC2)c1 [mCCP, m-chlorophenylpiperazine, reference compound] | 31.2 % of basal level and 39.4 % of basal level | – | – | 52.5% and 39.6% | – | – | – | – | – | – | – | – | – | 610 nM and 780 nM
